Measurements as given in paper PMC10218941, “Design, Synthesis, Antiproliferative Actions, and DFT Studies of New Bis–Pyrazoline Derivatives as Dual EGFR/BRAF^V600E Inhibitors” (International Journal of Molecular Sciences, 2023).

Columns and labels:
Assay type in all cases: cell-based
[1] = system: HT-29 (colon cancer cell line); experiment: Antiproliferative assay (MTT), HT-29; conditions: Homo sapiens, read-out: Antiproliferative Activity IC50 ± SEM (µM) HT-29
Protocol: (§1) The antiproliferative activity of pyrazoline hybrids 8–17 was tested against the four human cancer cell lines Panc-1 (pancreatic cancer cell line), MCF-7 (breast cancer cell line), HT-29 (colon cancer cell line), and A-549 (lung cancer cell line) using the MTT assay and doxorubicin as the reference drug. See Appendix SA (Supplementary File). […]
(§2) 4.2.1.2. Assay for antiproliferative effect
(§3) To explore the antiproliferative potential of compounds propidium iodide fluorescence assay was performed using different cell lines such as Panc -1 (pancreas cancer cell line), MCF-7 (breast cancer cell line), HT-29 (colon cancer cell line) and A-549 (epithelial cancer cell line), respectively. To calculate the total nuclear DNA, a fluorescent dye (propidium iodide, PI) is used which can attach to the DNA, thus offering a quick and precise technique. PI cannot pass through the cell membrane and its signal intensity can be considered as directly proportional to quantity of cellular DNA. Cells whose cell membranes are damaged or have changed permeability are counted as dead ones. The assay was performed by seeding the cells of different cell lines at a density of 3000-7500 cells/well (in200μl medium) in culture plates followed by incubation for 24h at 37 °C in humidified 5%CO2/95% air atmospheric conditions. The medium was removed; the compounds were added to the plates at 10 μM concentrations (in 0.1% DMSO) in triplicates, followed by incubation for 48h. DMSO (0.1%) was used as control. After incubation, medium was removed followed by the addition of PI (25 μl, 50μg/mL in water/medium) to each well of the plates. At - 80 °C, the plates were allowed to freeze for 24 h, followed by thawing at 25 °C. A fluorometer (Polar-Star BMG Tech) was used to record the readings at excitation and emission wavelengths of 530 and 620 nm for each well. The percentage cytotoxicity of compounds was calculated using […]
(§4) Where ATC= Absorbance of treated cells and AC= Absorbance of control. Erlotinib was used as positive control in the assay. […]

[2] = system: four human cancer cell lines (A-549, MCF-7, Panc-1, HT-29); experiment: Antiproliferative assay, mean of four cancer cell lines (GI50); conditions: mean over A-549, MCF-7, Panc-1, HT-29
[3] = Cell viability assay (MTT) on normal mammary epithelial cells; conditions: human, MCF-10A normal mammary gland epithelial cells, MCF-10A cells, four days
Protocol: To test the viability of new substances, the epithelial (MCF-10A) cell line of the normal human mammary gland was used. Compounds 8–17 were incubated for four days on MCF-10A cells before being tested for viability using the MTT assay. According to Table 1, none of the substances tested were cytotoxic, and cell viability at 50 µM was greater than 87% for the compounds tested.
The normal human mammary gland epithelial (MCF-10A) cell line was used to test the viability of new compounds [46, 47]. See Appendix SA (Supplementary File).
(§5) 4.2. Biological evaluation
4.2.1. Cytotoxic activity using MTT Assay and evaluation of IC50
MTT assay was performed to investigate the effect of the synthesized compounds on mammary epithelial cells (MCF-10A). The cells were propagated in medium consisting of Ham's F-12 medium/ Dulbecco's modified Eagle's medium (DMEM) (1:1) supplemented with 10% foetal calf serum, 2 mM glutamine, insulin (10 μg/mL), hydrocortisone (500 ng/mL) and epidermal growth factor (20 ng/mL). Trypsin ethylenediamine tetra acetic acid (EDTA) was used to passage the cells after every 2-3 days. 96-well flat-bottomed cell culture plates were used to seed the cells at a […]
of 10^4 cells mL-1. The medium was aspirated from all the wells of culture plates after 24 h followed by the addition of synthesized compounds (in 200 μL medium to yield a final concentration of 0.1% (v/v) dimethyl sulfoxide) into individual wells of the plates. Four wells were designated to a single compound. The plates were allowed to incubate at 37°C for 96 h. Afterwards, the medium was aspirated and 3 -[4,5-dimethylthiazol-2-yl]-2,5-diphenyltetrazolium bromide (MTT) (0.4 mg/mL) in medium was added to each well and subsequent ly incubated for 3 h. The medium was aspirated and 150 μL dimethyl sulfoxide (DMSO) was added to each well. The plates were vortexed followed by the measurement of absorbance at 540 nm on a microplate reader. […]

[4] = system: Panc-1 (pancreatic cancer cell line); experiment: Antiproliferative assay (MTT), Panc-1; conditions: Homo sapiens, read-out: Antiproliferative Activity IC50 ± SEM (µM) Panc-1
Protocol: as §1, §2, §3, §4

[5] = system: MCF-7 (breast cancer cell line); experiment: Antiproliferative assay (MTT), MCF-7; conditions: Homo sapiens, MCF7; read-out: Antiproliferative Activity IC50 ± SEM (µM) MCF-7
Protocol: The antiproliferative activity of pyrazoline hybrids 8–17 was tested against the four human cancer cell lines Panc-1 (pancreatic cancer cell line), MCF-7 (breast cancer cell line), HT-29 (colon cancer cell line), and A-549 (lung cancer cell line) using the MTT assay and doxorubicin as the reference drug. See Appendix SA (Supplementary File).
as §5
4.2.1. Cytotoxic activity using MTT Assay and evaluation of IC50 […]
96-well flat-bottomed cell culture plates were used to seed the cells at a […]
of 10^4 cells mL-1. The medium was aspirated from all the wells of culture plates after 24 h followed by the addition of synthesized compounds (in 200 μL medium to yield a final concentration of 0.1% (v/v) dimethyl sulfoxide) into individual wells of the plates. Four wells were designated to a single compound. The plates were allowed to incubate at 37°C for 96 h. Afterwards, the medium was aspirated and 3 -[4,5-dimethylthiazol-2-yl]-2,5-diphenyltetrazolium bromide (MTT) (0.4 mg/mL) in medium was added to each well and subsequent ly incubated for 3 h. The medium was aspirated and 150 μL dimethyl sulfoxide (DMSO) was added to each well. The plates were vortexed followed by the measurement of absorbance at 540 nm on a microplate reader. The results were presented as inhibition (%) of proliferation in contrast to controls comprising 0.1% 4.2.1.2. Assay for antiproliferative effect
as §3, §4

IC50 [1] [µM]	IC50 [2] [µM]	IC50 [4] [µM]	IC50 [5] [µM]	SMILES	viability at 96 h, 50 µM [3] [%]
1.2 ± 0.1	1.05	1.1 ± 0.1	0.9 ± 0.1	COc1ccc(C2CC(c3ccc(OCC(=O)Nc4ccc(C5=NNC(c6ccc(OC)c(OC)c6)C5)cc4)cc3)=NN2)cc1 (stereo not shown) [Compound 12, 2-(4-(5-(4-Methoxyphenyl)-4,5-dihydro-1H-pyrazol-3-yl)phenoxy)-N-(4-(5-(3,4-dimethoxyphenyl)-4,5-dihydro-1H-pyrazol-3-yl)phenyl)acetamide]	90
1.3 ± 0.1	1.2	1.3 ± 0.1	1 ± 0.1	COc1ccc(C2CC(c3ccc(NC(=O)COc4ccc(C5=NNC(c6ccc(OC)c(OC)c6)C5)cc4)cc3)=NN2)cc1 (stereo not shown) [Compound 17, 2-(4-(5-(3,4-Dimethoxyphenyl)-4,5-dihydro-1H-pyrazol-3-yl)phenoxy)-N-(4-(5-(4-methoxyphenyl)-4,5-dihydro-1H-pyrazol-3-yl)phenyl)acetamide]	91
